Active and inactive are the calls of the source.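 The calls were made as follows: active = compounds whose fitted half-maximal concentration in the cell-protection dose series is at or below a set limit; inactive = the rest.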

The term IC50 denotes the concentration that gives 50% inhibition.

For the assay, the system named is H9c2 cardiomyocytes, 2-deoxyglucose stress, ATP luminescence, 2 h. Kind of assay: protection of cardiomyocytes from 2-deoxyglucose injury, dose response, cell-based, 2-deoxyglucose stress, uHTS hits (AID 588780).
With `CS(=O)(=O)c1ccc(-c2cnc3c(NC=O)cc(-c4ccsc4)cn23)cc1`, the IC50 is > 79 µM (inactive).

Turning to `COc1ccc(C(=O)COC(=O)Cn2[nH]c(=O)c3ccccc3c2=O)c(OC)c1`, the IC50 was > 79 µM (inactive).

`Cn1c2c(c(=O)n(C)c1=O)C(c1ccc(Br)cc1)Nc1ccccc1O2` (stereo not drawn): the IC50 was > 79 µM (inactive).

With `O=C(NCC(=O)N(Cc1cccs1)C(C(=O)NC1CCCCC1)c1ccco1)c1ccco1` (stereo not drawn), the IC50 is 15.5 µM.

Take `COC(=O)c1c(C)[nH]c(C(=O)COc2ccc3ccc(=O)oc3c2)c1C`: the IC50 is > 79 µM (inactive).

Consider `COc1cccc(-c2cnc3c(NC(C)=O)cc(-c4cc(OC)c(OC)c(OC)c4)cn23)c1`, for which the IC50 was > 79 µM (inactive).

As to `Cn1nc(-c2ccccc2F)c2cc(C(=O)Nc3ccc4c(c3)OCCO4)sc21`, the IC50 is > 79 µM (inactive).

As for `Cc1ccc(C)c(S(=O)(=O)N2CCN(C(=O)CCc3nc4ccccc4c(=O)[nH]3)CC2)c1`, the IC50 was > 79 µM (inactive).

With `CCOC(=O)c1c2ccc(OCC(=O)N/N=C/c3ccc(C)cc3)cc2n2ccccc12`, the IC50 is > 79 µM (inactive).

As for `CC(OC(=O)CCc1nc2ccccc2c(=O)[nH]1)C(=O)NCc1ccc2c(c1)OCO2` (stereo not drawn), the IC50 is > 79 µM (inactive).

As to `O=C1OCCN1C(=O)[C@H]1[C@H](c2ccc([N+](=O)[O-])cc2)C(c2ccccc2)=NN1c1ccc(Br)cc1`, the IC50 is > 79 µM (inactive).

Turning to `Oc1ccc(Br)cc1C=Nc1ccc2c3c(cccc13)CC2`, the IC50 is 59.1 µM (inactive).

For the compound `CC(=O)c1cccc(NC(=O)C(C)OC(=O)Cc2n[nH]c(=O)c3ccccc23)c1` (stereo not drawn), the IC50 was > 79 µM (inactive).

For `O=C(CCc1nc2ccccc2c(=O)[nH]1)N1CCN(S(=O)(=O)c2cc(Cl)ccc2Cl)CC1`, the IC50 was > 79 µM (inactive).

As for `COc1ccc(OCC(=O)N/N=C/c2cccc3cccnc23)cc1`, the IC50 is 38.6 µM (inactive).

For `COc1ccc(NC(=O)c2oc3ccc(S(=O)(=O)N4CCOCC4)cc3c2C)cc1`, the IC50 is > 79 µM (inactive).

For `CC1Cc2ccccc2N1C(=O)Cn1nc(C(=O)O)c2ccccc2c1=O` (stereo not drawn), the IC50 was > 79 µM (inactive).

Take `COc1ccc(-c2nn3c(-c4ccco4)nnc3s2)cc1OC`: the IC50 was 33.8 µM (inactive).

For `COc1cc(/C=N\NC(=O)c2cccnc2)ccc1OC(=O)c1ccccc1Cl`, the IC50 was > 79 µM (inactive).

On to `CC(C)(C)OC(=O)NCC12C=CC(O1)C1C(=O)N(Cc3ccccc3)C(=O)C12` (stereo not drawn), for which the IC50 is > 79 µM (inactive).

For the compound `CSc1nc(Cl)c(Br)c(N2CC2)n1`, the IC50 is > 79 µM (inactive).

As to `O=C(CCc1nc2ccccc2c(=O)[nH]1)N1CCN(S(=O)(=O)c2cccc([N+](=O)[O-])c2)CC1`, the IC50 was > 79 µM (inactive).

Take `CCC(C)N(C(=O)COC(=O)Cc1n[nH]c(=O)c2ccccc12)C1CCS(=O)(=O)C1` (stereo not drawn): the IC50 was > 79 µM (inactive).

As to `CC(OC(=O)CCc1nc2ccccc2c(=O)[nH]1)C(=O)NC1CCCC1` (stereo not drawn), the IC50 was 57.3 µM (inactive).

In the case of `NC(=O)c1nsc(C(=O)N(c2ccccc2F)C(C(=O)NCc2ccc(F)cc2)c2ccc(O)cc2)c1N` (stereo not drawn), the IC50 was > 79 µM (inactive).

Consider `CCC(CC)C(=O)Nc1cc(C)c2c(=O)oc3ccccc3c2n1`, for which the IC50 was > 79 µM (inactive).

In the case of `O=C(COc1ccc(F)cc1Cl)Nc1nc(-c2ccccn2)cs1`, the IC50 is > 79 µM (inactive).

On to `COc1ccc(/C=N/NC(=O)c2cc(OC)c(OC)c(OC)c2)cc1CN1CCc2cc(OC)c(OC)cc2C1C` (stereo not drawn), for which the IC50 is > 79 µM (inactive).

Consider `Cc1ccc(-c2nn3c(-c4ccco4)nnc3c3ccccc23)cc1S(=O)(=O)NCC1CCCO1` (stereo not drawn), for which the IC50 was 23.3 µM.

As to `COc1ccc2o/c(=N/NC(=O)c3cccs3)c(C(N)=O)cc2c1`, the 50% inhibitory concentration (IC50) was 16.3 µM.

Take `CN(CC(=O)Nc1cccc(F)c1)C(=O)CCc1nc2ccccc2c(=O)[nH]1`: the IC50 is > 79 µM (inactive).

For the compound `CSCC[C@H](NC(=O)OC(C)(C)C)C(=O)N/N=C/c1cccc2cccnc12`, the IC50 is 30.9 µM (inactive).

For `Cc1ncc(CO)c2cc(C(=O)Nc3ccccc3Cl)c(=Nc3cccc(C(N)=O)c3)oc12`, the IC50 was > 79 µM (inactive).

Regarding `CCOc1ccc(C(=O)COC(=O)Cn2[nH]c(=O)c3ccccc3c2=O)cc1`, the IC50 is > 79 µM (inactive).

`NS(=O)(=O)c1ccc(CCNC(=O)c2ccc(C#CC3(O)CCCCC3)cc2)cc1`: the IC50 was > 79 µM (inactive).

With `COc1ccc2[nH]c(=O)c(CN(c3ccccc3OC)S(=O)(=O)c3ccccc3)cc2c1`, the IC50 was 15.1 µM.

As to `O=C(CN1C(=O)CCC1=O)Nc1nc(-c2ccccn2)cs1`, the IC50 is 43.2 µM (inactive).

Regarding `CN(C)C(=O)CSc1nc2ccccc2c(=O)[nH]1`, the IC50 was > 79 µM (inactive).

As for `O=C(N/N=C/c1cn(-c2ccccc2)nc1-c1cccnc1)c1ccccc1`, the IC50 is 12.8 µM.

For `CCN(C[C@H]1N[C@@](Cc2ccccc2)(C(=O)OC)[C@H]2C(=O)N(C)C(=O)[C@@H]12)S(=O)(=O)c1ccc(OC)cc1`, the IC50 was 37.2 µM (inactive).

Regarding `COc1cc(/C=N/NC(=O)NC23CC4CC(CC(C4)C2)C3)ccc1OCC(N)=O`, the IC50 is > 79 µM (inactive).

For the compound `CCOc1ccc(C(C(=O)NC2CCCC2)N(C(=O)c2snc(C(N)=O)c2N)c2cccc(O)c2)cc1` (stereo not drawn), the IC50 is > 79 µM (inactive).

In the case of `O=c1cc(CSc2ccc([N+](=O)[O-])cc2)nc2sccn12`, the IC50 is > 79 µM (inactive).

For the compound `Nc1cc2[nH]c(=O)c3ccccc3c2cc1[N+](=O)[O-]`, the IC50 was 15.1 µM.

Consider `CC(C)(C)NC(=O)COC(=O)c1c2c(nc3ccccc13)CCC2`, for which the IC50 was 15.1 µM.

Regarding `O=C(CSc1nc2ccccc2c(=O)[nH]1)c1ccc(O)cc1O`, the IC50 is 33.1 µM (inactive).

Take `C#Cc1cc(N2CCN(C(=O)c3ccoc3)CC2)n2nc(-c3cccc(Cl)c3)cc2n1`: the IC50 is > 79 µM (inactive).

`O=C1OCCN1C(=O)[C@H]1[C@H](c2ccc([N+](=O)[O-])cc2)C(c2ccc(F)cc2)=NN1c1ccc(Br)cc1`: the IC50 is 6.03 µM.

Consider `CC(=O)Nc1cc(-c2ccc(C(=O)NC3CC3)cc2)cn2c(-c3cccc(C(C)=O)c3)cnc12`, for which the IC50 is > 79 µM (inactive).

Consider `COc1cc(-c2cnc3c(NC=O)cc(-c4cccnc4)cn23)cc(OC)c1OC`, for which the IC50 is 30 µM.

For the compound `O=C(CCc1nc2ccccc2c(=O)[nH]1)Nc1ccc(Cl)c(Cl)c1`, the IC50 is 20.6 µM.

As to `CC(=O)Nc1cccc(-c2cc(NC(C)=O)c3ncc(-c4ccccc4)n3c2)c1`, the half-maximal inhibitory concentration (IC50) was 12.8 µM.

Consider `O=C(CSc1nc2ccccc2c(=O)[nH]1)N1CCOCC1`, for which the IC50 is > 79 µM (inactive).

As for `O=C(N/N=C/c1ccccn1)c1[nH]c2ccc([N+](=O)[O-])cc2c1-c1ccccc1`, the IC50 was 13.2 µM.

`COc1cc(C(=O)Nc2ccc(NC(=O)c3ccco3)nc2)cc(OC)c1OC`: the IC50 is 53.5 µM (inactive).

Regarding `CCc1nnc(NC(=O)CCC(=O)N2CCN(C3c4ccccc4-c4ccccc43)CC2)s1`, the IC50 is > 79 µM (inactive).

`CC1(C)Cc2c(C#N)c(SCc3nc4ccccc4[nH]3)nc(N3CCOCC3)c2CO1`: the IC50 was > 79 µM (inactive).

As for `COc1ccc2[nH]c(=O)c(CN(CCc3ccccc3)Cc3nnnn3CC3CCCO3)cc2c1` (stereo not drawn), the IC50 was > 79 µM (inactive).
